From patent US12559471B2, “1,5-dihydro-2,4-benzodiazepine-3-one derivative and application thereof” (JIANGSU NHWA PHARMACEUTICAL CO., LTD, priority 2020, dated 2026)
Where “and” joins values, the source holds several entries; their conditions need not be identical. Equal entries are not always repeated.

What was measured:
PPI in normal rats = PPI in normal rats (dosing test, normal saline instead of DOI); type: in vivo; conditions: for PPI %, MEAN / PPI %, individual animal: normal saline
Experimental: The test was performed according to literature and preliminary experiments, and the specific process was as follows: first an adaptation period of 5 min was given (62 dB background sound), and 5 separate startle reflex stimuli were given after the adaptation period (blockl, results not included in the analysis to reduce the initial response of the animals to a plateau level), followed by 4 different types of tests (block2) presented in a pseudo-random manner, namely: 1) startle reflex stimulus alone (pulse-alone, 120 dB, lasting 20 ms); 2) prepulse stimulus alone 13 dB above the background sound (prepulse-alone, 75 dB, lasting 20 ms); 3) prepulse stimulus in combination with startle reflex stimulus, each lasting 20 ms, with an interval of 100 ms; and 4) no stimulus in which only the background sound was given (no stimulus). Each trial was performed 5 times, with an average interval of 20 s (10-30 s) between trials.
The response amplitude of the startle reflex stimulus alone or the prepulse stimulus in combination with startle reflex stimulus was expressed as the AVG (instrument-specific unit) value, which indirectly reflects the size of the flinching response of the rat body. Evaluation index: PPI %=(1−response amplitude of prepulse stimulus in combination with startle reflex stimulus/response amplitude of startle reflex stimulus alone)×100. The higher the value is, the greater the degree of the inhibition is. Dosing Test:
The DOI at 0.5 mg/kg administered to animals in the above groups was changed to normal saline (NS), and other operations including administration and testing were the same as those in the intervention test.

[1] = system: MPTP+MK-801-induced Parkinson's disease mouse model; experiment: MPTP+MK-801-induced Parkinson's disease mouse model (anti-PDP efficacy model); type: in vivo; conditions: ip, mice, intraperitoneal, read-out: PDP efficacy (high activity) ED50
Experimental: 1.1 Effect on MPTP+MK-801-induced Parkinson's disease mouse model (anti-PDP efficacy model)
Animals were injected with different doses of MPTP(1-methyl-4-phenyl-1,2,3,6-tetrahydropyridine) intraperitoneally every morning for 5 consecutive days. […] Then, after an interval of 0.25 h, the mice were placed into an autonomous activity test box (a black polyethylene box with the specification of 29 cm×29 cm×30 cm) for video recording for 20 min. Video analysis was performed after the video recording to evaluate the activity of the mice.

[2] = system: DOI-induced head shaking behavior of mice; experiment: DOI-induced head shaking (head thrust) test in mice; type: in vivo; conditions: Mus musculus, intragastric, DOI 1 mg/kg i.p., 0-20 min, read-out: ED50 for inhibiting the DOI-induced head shaking behavior
Experimental: 1. Head Thrust Test in Mice
Mice were stratified according to body weight and then randomly divided into a model control group, a blank control group and drug administration groups. 1 h after the intragastric administration of a vehicle or a drug, the animals were placed in a beaker (with the diameter of 13 cm and the height of 19 cm) paved with fresh padding, and were injected with a modeling drug DOI ((±)-1-(2,5-dimethoxy-4-iodophenyl)-2-aminopropane hydrochloride or (±)-2,5-dimethoxy-4-iodoamphetamine hydrochloride) intraperitoneally at a dose of 1 mg/kg. The head shaking times of the mice during the 0-20 min after the intraperitoneal injection of DOI were recorded. The head shaking behavior is defined as a rapid rotational twitching or wet dog-like shaking of the mouse head, which is distinguished from normal grooming or exploring behavior.

[3] = system: MPTP+APO-induced climbing behavior in male mice; experiment: MPTP+APO-induced climbing behavior in male mice (DA motor deterioration model); type: in vivo; conditions: observation in words
Experimental: 1.2 Effect on MPTP+APO-induced climbing behavior in male mice (DA motor deterioration model) Animals were injected with different doses of MPTP intraperitoneally every morning for 5 consecutive days. […] After the subcutaneous injection, animals were immediately placed into a climbing cage (self-made, a cylindrical cage with the diameter of 13 cm and the height of 15 cm, made of a stainless steel wire mesh with the diameter of about 0.1 cm, the bottom of which is a semitransparent polyethylene plate, and the cage cover of which is a stainless steel cage cover), and the behaviors of animals at minutes 10-11, 20-21 and 30-31 after the APO injection was observed and scored.
Scoring criteria: four feet on the floor scored 0; two forepaws on the cage scored 1; and four feet on the cage scored 2.

[4] = system: MK-801-induced high activity behavior of mice; experiment: Dizocilpine (MK-801)-induced high activity test in mice; type: in vivo; conditions: Mus musculus, 1 h, intragastric, MK-801 0.3 mg/kg i.p., 60 min, read-out: ED50 for inhibiting the MK-801-induced high activity behavior
Experimental: 2. Dizocilpine (MK-801)-Induced High Activity Test in Mice 2.1 Test Method
Mice were stratified according to body weight and then randomly divided into a model control group, a blank control group and drug administration groups. After the administration of a test substance (or a control substance), the mice were placed into an autonomous activity test box (a black polyethylene box with the specification of 29 cm×29 cm×30 cm) for adaptation, and injected with MK-801 at 0.3 mg/kg intraperitoneally 1 h after the intragastric administration. The mice were then placed into the autonomous activity test box for video recording for 60 min. Video analysis was performed after the video recording to evaluate the activity of the mice.

[5] = Investigation of sedation side effects (autonomic activity, movement distance); type: in vivo, mice; conditions: mouse, in vivo, ip; C57BL/6j mice, intraperitoneal, 45 min after administration
Experimental: (§1) 1.3 Investigation of Sedation Side Effects (Anti-Sedation Model)
(§2) According to different doses of each group, solutions at different concentrations were separately formulated for intraperitoneal injection, with the final administration volume of 10 mL/kg.
(§3) The movement at 0-20 min was recorded on video, and the movement distance in 20 min was analyzed by Top Scan 3.00 software. The inhibition rate of each group relative to the blank group after the administration were calculated, and the sedation effects of the compounds were comprehensively evaluated in combination with a statistical conclusion.

C57BL/6j mice = experiment: as above; type: in vivo; conditions: sedation ED50 / PDP efficacy ED50
Experimental: as §1, §2, §3

5-HT2A receptor = 5-HT2A receptor (Homo sapiens (Human), UniProt P28223); experiment: Competitive 5-HT2A receptor binding assay (3H-Ketanserin, CHO-5-HT2A membrane)
5-HT2A receptor, sequence (P28223 whole entry): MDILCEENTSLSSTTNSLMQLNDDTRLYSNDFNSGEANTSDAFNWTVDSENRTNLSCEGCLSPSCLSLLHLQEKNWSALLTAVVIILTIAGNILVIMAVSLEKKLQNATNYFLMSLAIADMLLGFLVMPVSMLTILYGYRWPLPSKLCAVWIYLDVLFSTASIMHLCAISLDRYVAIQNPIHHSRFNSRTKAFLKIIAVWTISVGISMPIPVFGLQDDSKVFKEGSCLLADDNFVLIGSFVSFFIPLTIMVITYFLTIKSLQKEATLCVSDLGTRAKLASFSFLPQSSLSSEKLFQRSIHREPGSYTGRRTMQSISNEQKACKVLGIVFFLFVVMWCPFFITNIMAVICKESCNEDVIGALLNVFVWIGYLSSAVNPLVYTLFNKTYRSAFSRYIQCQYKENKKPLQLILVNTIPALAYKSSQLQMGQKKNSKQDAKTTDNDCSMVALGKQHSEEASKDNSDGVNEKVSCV
Experimental: 1) Preparation of CHO-5-HT2A Receptor Membrane
The precipitate was collected, and the supernatant was discarded. The solution B was added into the precipitate. […] The supernatant was carefully discarded, and the solution B was added into the precipitate again. […] The precipitate obtained was stored at −80° C.
1) Competitive 5-HT2A Receptor Binding Assay
Step 2: 100 μL of the membrane preparation was added into each reaction tube.
After the filtration, the filter membrane was dried at 60° C. and added into a scintillation disc attached with a bottom membrane, which was then added with 40 μL of scintillation liquid, sealed with a top membrane, and left to stand.

## CC(C)COc1ccc(CN2Cc3ccc(F)cc3CN(C3CCN(C)CC3)C2=O)cc1 [NH-K-A19005, 8-fluoro-2-(1-methylpiperidin-4-yl)-4-[[4-(2-methylpropoxy)phenyl]methyl]-1,5-dihydro-2,4-benzo diazepine-3-one]
PPI in normal rats; 3 mg/kg
  effect on PPI in normal rats: no significant effects were seen
PPI in normal rats; 1 mg/kg intragastric
  PPI %, MEAN: 56.40%
  PPI %, individual animal: 80.68% and 15.47% and 49.79% and 52.82% and 71.15% and 68.46%
PPI in normal rats; 3 mg/kg intragastric
  PPI %, MEAN: 57.04%
  PPI %, individual animal: 59.36% and 82.61% and 79.48% and 48.75% and 42.42% and 38.56% and 48.95% and 56.22%
PPI in normal rats; 10 mg/kg intragastric
  PPI %, MEAN: 73.61%
  PPI %, individual animal: 55.11% and 96.41% and 53.03% and 84.89% and 84.43% and 72.39% and 61.37% and 81.26%
[1]
  ED50: 1.85 mg/kg
[2]
  ED50: 0.15 mg/kg
[3]
  motor deterioration (DA mechanism of action): no motor deterioration is observed
[4]
  ED50: 1.01 mg/kg
[5]
  ED50 at 45 min: 20 mg/kg
C57BL/6j mice
  Ratio of sedation ED50 to PDP efficacy ED50: 10.8
5-HT2A receptor; CHO-5-HT2A membrane, 3H-Ketanserin, read-out: 5-HT2A (Ki value)
  Ki: 0.429 nM
5-HT2A receptor; ratio of 5-HT2C Ki to 5-HT2A Ki
  2C/2A: 7.907
